According to ChEMBL document CHEMBL1201862, “PubChem BioAssay data set” (2004):
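Assay format: 96-well plates, 48-hour exposure. GI50 is the concentration that inhibits growth by half.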 The source made the active and inactive calls. Rule as the data show it: active = GI50 up to about 1.1 µM and inactive = higher.

How the values were obtained:
Test in all cases: inhibition of tumour cell growth, NCI panel, 48 h
KM-20L2 = tested on: KM-20L2
DMS-273 = tested on: DMS-273
SNB-78 = tested on: SNB-78
M19-MEL = tested on: M19-MEL
DMS-114 = tested on: DMS-114
RXF 631 = tested on: RXF 631
XF498 = tested on: XF498
MDA-N = tested on: MDA-N
Hs-578T = tested on: Hs-578T

| SMILES | GI50 (KM-20L2) | GI50 (DMS-273) | GI50 (SNB-78) | GI50 (M19-MEL) | GI50 (DMS-114) | GI50 (RXF 631) | GI50 (XF498) | GI50 (MDA-N) | GI50 (Hs-578T) |
| --- | --- | --- | --- | --- | --- | --- | --- | --- | --- |
| COc1cc(Cl)c2c3c(c(C(C)=O)oc13)CCC2 | > 100 µM (inactive) | > 100 µM (inactive) | > 100 µM (inactive) | > 100 µM (inactive) | > 100 µM (inactive) | > 100 µM (inactive) |  |  |  |
| COc1cc(/C=C\c2ccc(Br)cc2)cc(OC)c1OC | 0.00033 µM (active) | 0.00332 µM (active) | 0.000305 µM (active) | 0.00524 µM (active) | 0.000986 µM (active) | 0.01 µM (active) | 0.000678 µM (active) |  |  |
| CC(=O)NC(CCCCN(Cc1ccccc1)C(=O)N(C)N=O)C(=O)NCc1ccccc1 (stereo unspecified) | > 100 µM (inactive) | 97.3 µM (inactive) | > 100 µM (inactive) | > 100 µM (inactive) | 43.6 µM (inactive) | > 100 µM (inactive) | > 100 µM (inactive) |  |  |
| C[C@]12Cc3cn[nH]c3C(=O)C1CC[C@@H]1C2CC[C@@]2(C)C1CC[C@]2(C)O (stereo partly specified) | > 100 µM (inactive) | > 100 µM (inactive) | > 100 µM (inactive) | > 100 µM (inactive) | > 100 µM (inactive) | > 100 µM (inactive) | > 100 µM (inactive) |  |  |
| Cc1ccc([Se][Se]c2ccc(C)cc2)cc1 | 38.6 µM (inactive) | 16.4 µM (inactive) | 16.5 µM (inactive) | 13.7 µM (inactive) | 11.6 µM (inactive) | 21.9 µM (inactive) | 12.7 µM (inactive) |  |  |
| COCCCNC(=O)C1C(=O)C(=O)N(CCCOC)C1=O (stereo unspecified) | > 100 µM (inactive) | > 100 µM (inactive) | > 100 µM (inactive) | > 100 µM (inactive) | > 100 µM (inactive) | > 100 µM (inactive) |  |  |  |
| N=C(N)N/N=C(/CC1OC(=O)c2ccccc21)c1ccc2ccccc2c1 (stereo unspecified) | 24.7 µM (inactive) | 21.6 µM (inactive) | > 100 µM (inactive) | 16.2 µM (inactive) | 12.9 µM (inactive) | 21.4 µM (inactive) | 7.71 µM (inactive) |  |  |
| COc1ccc(/C=c2\sc3nnc(CCC(=O)Nc4cccc(C(F)(F)F)c4)n3c2=O)cc1 | > 100 µM (inactive) | > 100 µM (inactive) | > 100 µM (inactive) | > 84.1 µM (inactive) | > 100 µM (inactive) | > 100 µM (inactive) | > 100 µM (inactive) |  |  |
| C[C@]12CC[C@H](OC(=O)Nc3ccccc3)CC1=CC[C@@H]1C2CC[C@]2(C)/C(=N/OC(=O)Nc3ccccc3)CCC12 (stereo partly specified) | 3.2 µM (inactive) | 37.3 µM (inactive) | > 100 µM (inactive) | > 100 µM (inactive) | 2.71 µM (inactive) | 6.37 µM (inactive) | 1.75 µM (inactive) |  |  |
| COc1ccc(C2c3cc4c(cc3OC(O)(CO)C2C(=O)O)OCO4)cc1.COc1ccc(C2c3cc4c(cc3OC3(O)COC(=O)C23)OCO4)cc1 (stereo unspecified) | 43.2 µM (inactive) | 4.14 µM (inactive) | 23.2 µM (inactive) | 4.6 µM (inactive) | 22.2 µM (inactive) | 19.5 µM (inactive) | 0.536 µM (active) |  |  |
| O=c1[nH]c2cc(-c3ccccc3)nc-2nn1-c1c(Cl)cc(Cl)cc1Cl | 25.8 µM (inactive) | 37.3 µM (inactive) | 37.5 µM (inactive) | 22.8 µM (inactive) | > 100 µM (inactive) | 46 µM (inactive) | 27.9 µM (inactive) |  |  |
| CCc1cccc(C(C)C)c1NC(=O)C(=O)C(CC(=O)Nc1ccc(Cl)c(Cl)c1)C(=O)OC (stereo unspecified) | 26.2 µM (inactive) | 49.4 µM (inactive) | > 100 µM (inactive) | 52.5 µM (inactive) | > 100 µM (inactive) | > 100 µM (inactive) | > 100 µM (inactive) |  |  |
| CC(O)C(NC(=O)C(CS)NC(=O)C(CO)NC(=O)C(CCCCN)NC(=O)C(Cc1c[nH]c2ccccc12)NC(=O)C(Cc1ccc(O)cc1)NC(=O)C(CS)NC(=O)C(N)Cc1ccccc1)C(N)=O (stereo unspecified) | 23.9 µM (inactive) | 20.9 µM (inactive) | 31.3 µM (inactive) | 26 µM (inactive) | 35.8 µM (inactive) | 19.1 µM (inactive) | 21.6 µM (inactive) | > 25 µM (inactive) | > 25 µM (inactive) |
